Test results: ChEMBL document CHEMBL1150136, “Limnazine, the first bacterial azine derivative from Bacillus sp. GW90a” (J Nat Prod, 2002)
The source made the active and inactive calls.

Assays:
Assay type in all cases: functional, organism-based
[1] = test system: Rhizomucor miehei; test: Antifungal activity against Mucor miehei by agar diffusion test
[2] = test system: Chlorella salina; test: Antialgal activity against Chlorella salina by agar diffusion test
[3] = test system: Escherichia coli; test: Antibacterial activity against Escherichia coli up to 100 ug/mL by agar diffusion test
[4] = test system: Chlorella sorokiniana; test: Antialgal activity against Chlorella sorokiniana by agar diffusion test
[5] = test system: Chlorella vulgaris; test: Antialgal activity against Chlorella vulgaris up to 100 ug/mL by agar diffusion test
[6] = test system: Bacillus subtilis; test: Antibacterial activity against Bacillus subtilis up to 100 ug/mL by agar diffusion test
[7] = test system: Staphylococcus aureus; test: Antibacterial activity against Staphylococcus aureus by agar diffusion test

Measured: Activity

Cc1ccc2c(c1)/C(=N\N=C1/CC(C)(C)Oc3ccc(C)cc31)CC(C)(C)O2
inactive: all assays above
